From PubChem BioAssay AID651963 (The Scripps Research Institute Molecular Screening Center, 2012)

Tested on: C. elegans Q35::YFP muscle, polyQ foci count microscopy
Experiment: PubChem AID 651963
Details: at 10 µM; active compounds read low

SMILES: COc1ccc(/C=C/C=C2C(=O)NC(=O)NC2=O)cc1
- relative foci: 33.8%
